Data published in paper PMC5392334, “Discovery and characterization of a novel irreversible EGFR mutants selective and potent kinase inhibitor CHMFL-EGFR-26 with a distinct binding mode” (Oncotarget, 2017).

Columns and labels:
Test in all cases: KinomeScan
Assay type in all cases: binding
Conditions in all cases: read-out: % control
PIM3 = molecular target: T1, PIM3 (Homo sapiens, UniProt Q86V86)
T1 construct: purchased DiscoveRx KINOMEscan

CSNK1A1 = molecular target: T2, CSNK1A1 (Homo sapiens, UniProt P48729)
T2 construct: purchased DiscoveRx KINOMEscan

TRPM6 = molecular target: T3, TRPM6 (Homo sapiens, UniProt Q9BX84)
T3 construct: purchased DiscoveRx KINOMEscan

ULK2 = molecular target: T4, ULK2 (Homo sapiens, UniProt Q8IYT8)
T4 construct: purchased DiscoveRx KINOMEscan

PIKFYVE = molecular target: T5, PIKFYVE (Homo sapiens, UniProt Q9Y2I7)
T5 construct: purchased DiscoveRx KINOMEscan

AURKA = molecular target: T6, AURKA (Homo sapiens, UniProt O14965)
T6 construct: purchased DiscoveRx KINOMEscan

AURKC = molecular target: T7, AURKC (Homo sapiens, UniProt Q9UQB9)
T7 construct: purchased DiscoveRx KINOMEscan

ERN1 = molecular target: T8, ERN1 (Homo sapiens, UniProt O75460)
T8 construct: purchased DiscoveRx KINOMEscan

[1] = molecular target: T9, TYK2(JH2domain-pseudokinase) (Homo sapiens, UniProt P29597)
T9 construct: TYK2(JH2domain-pseudokinase); purchased DiscoveRx KINOMEscan

PFPK5(P.falciparum) = molecular target: T10, PFPK5(P.falciparum) (Plasmodium falciparum, UniProt P61075)
T10 construct: purchased DiscoveRx KINOMEscan

NIK = molecular target: T11, NIK (Homo sapiens, UniProt Q99558)
T11 construct: purchased DiscoveRx KINOMEscan

PLK4 = molecular target: T12, PLK4 (Homo sapiens, UniProt O00444)
T12 construct: purchased DiscoveRx KINOMEscan

EPHA7 = molecular target: T13, EPHA7 (Homo sapiens, UniProt Q15375)
T13 construct: purchased DiscoveRx KINOMEscan

PRKG1 = molecular target: T14, PRKG1 (Homo sapiens, UniProt Q13976)
T14 construct: purchased DiscoveRx KINOMEscan

FGFR3(G697C) = molecular target: T15, FGFR3(G697C) (Homo sapiens, UniProt P22607, G697C)
T15 construct: purchased DiscoveRx KINOMEscan

[2] = molecular target: T16, ABL1(Q252H)-nonphosphorylated (Homo sapiens, UniProt P00519, Q252H)
T16 construct: purchased DiscoveRx KINOMEscan

PIP5K1C = molecular target: T17, PIP5K1C (Homo sapiens, UniProt O60331)
T17 construct: purchased DiscoveRx KINOMEscan

DDR1 = molecular target: T18, DDR1 (Homo sapiens, UniProt Q08345)
T18 construct: purchased DiscoveRx KINOMEscan

RAF1 = molecular target: T19, RAF1 (Homo sapiens, UniProt P04049)
T19 construct: purchased DiscoveRx KINOMEscan

TBK1 = molecular target: T20, TBK1 (Homo sapiens, UniProt Q9UHD2)
T20 construct: purchased DiscoveRx KINOMEscan

LIMK2 = molecular target: T21, LIMK2 (Homo sapiens, UniProt P53671)
T21 construct: purchased DiscoveRx KINOMEscan

ACVRL1 = molecular target: T22, ACVRL1 (Homo sapiens, UniProt P37023)
T22 construct: purchased DiscoveRx KINOMEscan

ASK2 = molecular target: T23, ASK2 (Homo sapiens, UniProt O95382)
T23 construct: purchased DiscoveRx KINOMEscan

[3] = molecular target: T24, ABL1(F317I)-nonphosphorylated (Homo sapiens, UniProt P00519, F317I)
T24 construct: purchased DiscoveRx KINOMEscan

SRPK2 = molecular target: T25, SRPK2 (Homo sapiens, UniProt P78362)
T25 construct: purchased DiscoveRx KINOMEscan

PFTAIRE2 = molecular target: T26, PFTAIRE2 (Homo sapiens, UniProt Q96Q40)
T26 construct: purchased DiscoveRx KINOMEscan

SRPK1 = molecular target: T27, SRPK1 (Homo sapiens, UniProt Q96SB4)
T27 construct: purchased DiscoveRx KINOMEscan

MEK3 = molecular target: T28, MEK3 (Homo sapiens, UniProt P46734)
T28 construct: purchased DiscoveRx KINOMEscan

CLK3 = molecular target: T29, CLK3 (Homo sapiens, UniProt P49761)
T29 construct: purchased DiscoveRx KINOMEscan

PAK3 = molecular target: T30, PAK3 (Homo sapiens, UniProt O75914)
T30 construct: purchased DiscoveRx KINOMEscan

KIT(V559D,V654A) = molecular target: T31, KIT(V559D,V654A) (Homo sapiens, UniProt P10721, V559D/V654A)
T31 construct: purchased DiscoveRx KINOMEscan

SLK = molecular target: T32, SLK (Homo sapiens, UniProt Q9H2G2)
T32 construct: purchased DiscoveRx KINOMEscan

DRAK1 = molecular target: T33, DRAK1 (Homo sapiens, UniProt Q9UEE5)
T33 construct: purchased DiscoveRx KINOMEscan

PFTK1 = molecular target: T34, PFTK1 (Homo sapiens, UniProt O94921)
T34 construct: purchased DiscoveRx KINOMEscan

NIM1 = molecular target: T35, NIM1 (Homo sapiens, UniProt Q8IY84)
T35 construct: purchased DiscoveRx KINOMEscan

FLT3(D835Y) = molecular target: T36, FLT3(D835Y) (Homo sapiens, UniProt P36888, D835Y)
T36 construct: purchased DiscoveRx KINOMEscan

EPHB4 = molecular target: T37, EPHB4 (Homo sapiens, UniProt P54760)
T37 construct: purchased DiscoveRx KINOMEscan

NEK6 = molecular target: T38, NEK6 (Homo sapiens, UniProt Q9HC98)
T38 construct: purchased DiscoveRx KINOMEscan

YANK3 = molecular target: T39, YANK3 (Homo sapiens, UniProt Q86UX6)
T39 construct: purchased DiscoveRx KINOMEscan

SRC = molecular target: T40, SRC (Homo sapiens, UniProt P12931)
T40 construct: purchased DiscoveRx KINOMEscan

PDPK1 = molecular target: T41, PDPK1 (Homo sapiens, UniProt O15530)
T41 construct: purchased DiscoveRx KINOMEscan

LRRK2(G2019S) = molecular target: T42, LRRK2(G2019S) (Homo sapiens, UniProt Q5S007, G2019S)
T42 construct: purchased DiscoveRx KINOMEscan

CHEK2 = molecular target: T43, CHEK2 (Homo sapiens, UniProt O96017)
T43 construct: purchased DiscoveRx KINOMEscan

T11 sequence (Q99558 whole entry): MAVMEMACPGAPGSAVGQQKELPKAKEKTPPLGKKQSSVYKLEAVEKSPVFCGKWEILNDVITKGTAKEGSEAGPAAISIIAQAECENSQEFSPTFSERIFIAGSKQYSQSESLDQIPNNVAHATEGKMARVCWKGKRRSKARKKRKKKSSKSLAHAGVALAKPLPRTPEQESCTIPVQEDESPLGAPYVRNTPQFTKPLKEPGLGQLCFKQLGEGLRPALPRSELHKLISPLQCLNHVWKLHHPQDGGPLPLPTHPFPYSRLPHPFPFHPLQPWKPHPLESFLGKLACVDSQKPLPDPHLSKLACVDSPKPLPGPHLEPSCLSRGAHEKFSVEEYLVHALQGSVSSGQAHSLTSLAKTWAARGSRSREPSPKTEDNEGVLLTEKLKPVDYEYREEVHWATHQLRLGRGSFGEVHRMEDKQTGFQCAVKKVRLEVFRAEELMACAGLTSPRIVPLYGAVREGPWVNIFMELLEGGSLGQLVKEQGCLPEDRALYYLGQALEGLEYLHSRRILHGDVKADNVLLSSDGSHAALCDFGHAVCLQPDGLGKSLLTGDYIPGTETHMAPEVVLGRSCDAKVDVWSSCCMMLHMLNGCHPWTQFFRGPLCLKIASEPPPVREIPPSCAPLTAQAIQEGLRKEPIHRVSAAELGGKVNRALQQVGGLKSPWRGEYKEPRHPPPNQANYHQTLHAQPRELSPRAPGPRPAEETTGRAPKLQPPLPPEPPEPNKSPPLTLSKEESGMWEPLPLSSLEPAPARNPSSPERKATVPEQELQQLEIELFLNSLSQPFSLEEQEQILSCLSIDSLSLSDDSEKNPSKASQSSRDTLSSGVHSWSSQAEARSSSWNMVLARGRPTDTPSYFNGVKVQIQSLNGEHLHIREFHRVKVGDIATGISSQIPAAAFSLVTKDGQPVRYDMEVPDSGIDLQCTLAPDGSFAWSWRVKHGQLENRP
T18 sequence (Q08345 19-913): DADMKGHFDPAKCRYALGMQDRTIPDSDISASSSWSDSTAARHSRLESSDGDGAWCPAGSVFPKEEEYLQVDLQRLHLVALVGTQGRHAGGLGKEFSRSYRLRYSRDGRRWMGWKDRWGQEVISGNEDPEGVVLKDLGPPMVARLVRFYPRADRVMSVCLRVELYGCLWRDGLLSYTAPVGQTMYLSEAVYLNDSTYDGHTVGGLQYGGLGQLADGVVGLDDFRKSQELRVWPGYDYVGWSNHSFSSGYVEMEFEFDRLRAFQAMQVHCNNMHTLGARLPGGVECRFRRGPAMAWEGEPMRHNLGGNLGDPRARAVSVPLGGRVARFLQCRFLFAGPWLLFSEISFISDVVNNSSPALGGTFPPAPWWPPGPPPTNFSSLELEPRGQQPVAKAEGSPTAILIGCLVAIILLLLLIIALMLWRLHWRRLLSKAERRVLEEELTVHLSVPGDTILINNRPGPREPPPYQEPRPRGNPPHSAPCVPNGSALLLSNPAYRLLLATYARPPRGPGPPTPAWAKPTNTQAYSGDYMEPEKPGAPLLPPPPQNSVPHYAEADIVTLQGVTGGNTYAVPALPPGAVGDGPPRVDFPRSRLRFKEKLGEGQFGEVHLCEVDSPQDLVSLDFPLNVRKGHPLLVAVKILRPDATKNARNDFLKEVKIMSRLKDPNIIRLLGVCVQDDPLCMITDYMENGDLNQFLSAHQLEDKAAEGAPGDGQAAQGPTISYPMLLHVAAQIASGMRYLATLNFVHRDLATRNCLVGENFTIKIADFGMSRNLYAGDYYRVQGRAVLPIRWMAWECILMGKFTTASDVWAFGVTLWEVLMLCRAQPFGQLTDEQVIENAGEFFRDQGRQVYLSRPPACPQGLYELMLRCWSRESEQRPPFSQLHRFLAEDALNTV
T12 sequence (O00444 whole entry): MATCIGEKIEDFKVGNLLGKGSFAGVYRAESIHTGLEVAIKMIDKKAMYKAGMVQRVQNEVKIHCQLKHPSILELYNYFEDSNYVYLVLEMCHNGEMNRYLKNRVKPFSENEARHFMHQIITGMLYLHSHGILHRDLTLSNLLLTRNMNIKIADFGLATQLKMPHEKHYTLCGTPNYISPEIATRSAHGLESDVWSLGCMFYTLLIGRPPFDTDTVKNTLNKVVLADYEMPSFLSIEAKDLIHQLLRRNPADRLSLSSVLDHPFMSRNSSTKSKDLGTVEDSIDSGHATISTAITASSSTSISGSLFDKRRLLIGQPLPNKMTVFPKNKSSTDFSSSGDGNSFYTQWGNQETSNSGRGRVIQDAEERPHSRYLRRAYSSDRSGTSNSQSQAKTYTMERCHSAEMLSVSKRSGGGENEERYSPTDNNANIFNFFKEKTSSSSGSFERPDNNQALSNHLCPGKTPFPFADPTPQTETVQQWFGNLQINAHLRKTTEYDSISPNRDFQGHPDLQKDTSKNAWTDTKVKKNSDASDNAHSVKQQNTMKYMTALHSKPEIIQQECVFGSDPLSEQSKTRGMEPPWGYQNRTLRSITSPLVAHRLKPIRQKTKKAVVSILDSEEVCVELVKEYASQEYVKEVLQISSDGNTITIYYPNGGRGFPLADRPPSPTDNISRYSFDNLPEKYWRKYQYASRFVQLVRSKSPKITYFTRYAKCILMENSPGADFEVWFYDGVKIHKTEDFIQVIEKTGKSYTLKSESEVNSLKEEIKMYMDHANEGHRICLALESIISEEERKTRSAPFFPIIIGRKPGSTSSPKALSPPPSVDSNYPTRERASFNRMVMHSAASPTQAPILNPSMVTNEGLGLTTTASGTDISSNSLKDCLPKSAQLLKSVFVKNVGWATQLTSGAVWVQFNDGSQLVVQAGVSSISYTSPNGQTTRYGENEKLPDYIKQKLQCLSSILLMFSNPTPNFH
T28 sequence (P46734 whole entry): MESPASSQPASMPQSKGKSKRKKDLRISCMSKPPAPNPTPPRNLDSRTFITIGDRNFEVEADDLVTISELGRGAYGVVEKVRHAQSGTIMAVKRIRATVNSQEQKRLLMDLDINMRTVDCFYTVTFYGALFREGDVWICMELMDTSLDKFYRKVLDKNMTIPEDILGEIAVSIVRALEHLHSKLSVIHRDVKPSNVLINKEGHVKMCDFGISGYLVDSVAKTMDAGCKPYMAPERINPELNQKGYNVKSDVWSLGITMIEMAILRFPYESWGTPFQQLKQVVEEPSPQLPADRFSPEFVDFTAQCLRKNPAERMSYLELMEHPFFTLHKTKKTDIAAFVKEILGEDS
T2 sequence (P48729 whole entry): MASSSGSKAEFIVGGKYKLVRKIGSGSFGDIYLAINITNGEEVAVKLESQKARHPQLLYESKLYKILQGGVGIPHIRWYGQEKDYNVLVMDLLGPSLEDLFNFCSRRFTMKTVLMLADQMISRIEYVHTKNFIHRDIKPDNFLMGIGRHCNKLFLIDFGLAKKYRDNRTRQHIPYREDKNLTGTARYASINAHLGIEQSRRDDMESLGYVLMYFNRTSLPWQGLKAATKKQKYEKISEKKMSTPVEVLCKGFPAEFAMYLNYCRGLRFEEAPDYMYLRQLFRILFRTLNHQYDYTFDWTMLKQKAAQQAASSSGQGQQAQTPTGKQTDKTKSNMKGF
T39 sequence (Q86UX6 whole entry): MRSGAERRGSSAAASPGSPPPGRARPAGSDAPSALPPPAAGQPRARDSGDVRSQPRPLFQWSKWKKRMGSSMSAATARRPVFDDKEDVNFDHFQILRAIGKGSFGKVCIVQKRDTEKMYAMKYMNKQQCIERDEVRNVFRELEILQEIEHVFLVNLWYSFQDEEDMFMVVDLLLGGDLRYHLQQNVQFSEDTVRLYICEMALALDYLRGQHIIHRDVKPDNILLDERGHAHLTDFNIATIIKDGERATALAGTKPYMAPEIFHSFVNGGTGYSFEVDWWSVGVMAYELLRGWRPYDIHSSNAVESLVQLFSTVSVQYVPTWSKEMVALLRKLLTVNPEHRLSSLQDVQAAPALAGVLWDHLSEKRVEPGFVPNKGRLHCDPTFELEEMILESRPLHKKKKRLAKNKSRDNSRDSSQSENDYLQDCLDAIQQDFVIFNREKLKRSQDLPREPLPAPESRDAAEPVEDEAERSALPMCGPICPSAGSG
T6 sequence (O14965 whole entry): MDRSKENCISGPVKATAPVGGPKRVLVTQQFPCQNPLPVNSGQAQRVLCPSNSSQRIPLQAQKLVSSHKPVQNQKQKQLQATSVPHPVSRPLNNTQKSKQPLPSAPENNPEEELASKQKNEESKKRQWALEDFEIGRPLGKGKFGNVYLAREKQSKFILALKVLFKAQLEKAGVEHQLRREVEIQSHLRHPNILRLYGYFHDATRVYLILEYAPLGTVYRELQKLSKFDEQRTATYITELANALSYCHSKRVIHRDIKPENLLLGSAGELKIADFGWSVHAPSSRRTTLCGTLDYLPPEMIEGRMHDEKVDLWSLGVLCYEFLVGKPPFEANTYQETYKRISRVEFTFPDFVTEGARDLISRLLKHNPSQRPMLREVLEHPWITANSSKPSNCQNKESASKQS
T34 sequence (O94921 whole entry): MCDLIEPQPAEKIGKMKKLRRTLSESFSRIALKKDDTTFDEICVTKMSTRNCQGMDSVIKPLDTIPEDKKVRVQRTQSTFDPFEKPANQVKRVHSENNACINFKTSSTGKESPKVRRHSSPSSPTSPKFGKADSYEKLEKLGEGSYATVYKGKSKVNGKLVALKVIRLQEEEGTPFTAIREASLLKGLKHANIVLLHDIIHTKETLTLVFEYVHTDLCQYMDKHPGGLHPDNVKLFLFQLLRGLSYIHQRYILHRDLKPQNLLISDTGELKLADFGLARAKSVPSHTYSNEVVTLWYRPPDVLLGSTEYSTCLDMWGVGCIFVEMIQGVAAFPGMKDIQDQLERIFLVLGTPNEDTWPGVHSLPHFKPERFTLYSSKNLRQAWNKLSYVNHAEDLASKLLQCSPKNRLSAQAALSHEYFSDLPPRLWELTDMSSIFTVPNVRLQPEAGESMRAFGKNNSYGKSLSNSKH

Compound C=CC(=O)N1CCC[C@@H](n2nc(-c3ccc(OCc4cccc(C)n4)c(Cl)c3)c3c(N)ncnc32)C1 [CHMFL-EGFR-26] has a remaining binding at 1 µM (PIM3) of 100%, a remaining binding at 1 µM (CSNK1A1) of 100% and a remaining binding at 1 µM (TRPM6) of 100%. It also gave a remaining binding at 1 µM (ULK2) of 97%, a remaining binding at 1 µM (PIKFYVE) of 75% and a remaining binding at 1 µM (AURKA) of 97%. For the same compound, the remaining binding at 1 µM (AURKC) was 87%, the remaining binding at 1 µM (ERN1) was 81% and the remaining binding at 1 µM [1] was 97%. The remaining binding at 1 µM (PFPK5(P.falciparum)) was 100%, the remaining binding at 1 µM (NIK) was 100% and the remaining binding at 1 µM (PLK4) was 99%. It also gave a remaining binding at 1 µM (EPHA7) of 100%, a remaining binding at 1 µM (PRKG1) of 14% and a remaining binding at 1 µM (FGFR3(G697C)) of 100%. For the same compound, the remaining binding at 1 µM [2] was 100%, the remaining binding at 1 µM (PIP5K1C) was 67% and the remaining binding at 1 µM (DDR1) was 85%. For the same compound, the remaining binding at 1 µM (RAF1) was 97%, the remaining binding at 1 µM (TBK1) was 100% and the remaining binding at 1 µM (LIMK2) was 100%. It also gave a remaining binding at 1 µM (ACVRL1) of 100%, a remaining binding at 1 µM (ASK2) of 68% and a remaining binding at 1 µM [3] of 100%. It also gave a remaining binding at 1 µM (SRPK2) of 100%, a remaining binding at 1 µM (PFTAIRE2) of 97% and a remaining binding at 1 µM (SRPK1) of 100%. For the same compound, the remaining binding at 1 µM (MEK3) was 98%, the remaining binding at 1 µM (CLK3) was 100% and the remaining binding at 1 µM (PAK3) was 62%. For the same compound, the remaining binding at 1 µM (KIT(V559D,V654A)) was 89%, the remaining binding at 1 µM (SLK) was 8.8% and the remaining binding at 1 µM (DRAK1) was 100%. The remaining binding at 1 µM (PFTK1) was 100%, the remaining binding at 1 µM (NIM1) was 96% and the remaining binding at 1 µM (FLT3(D835Y)) was 97%. The remaining binding at 1 µM (EPHB4) was 100%, the remaining binding at 1 µM (NEK6) was 100% and the remaining binding at 1 µM (YANK3) was 90%. The remaining binding at 1 µM (SRC) was 100%, the remaining binding at 1 µM (PDPK1) was 97% and the remaining binding at 1 µM (LRRK2(G2019S)) was 100%. It also gave a remaining binding at 1 µM (CHEK2) of 88%.
